Test system: PIP tumor and PC3 tumor
Test: Biodistribution of 125I labeled compounds 17, 18, 26 and 27 in tumor bearing nude mice
Type: in vivo
Conditions: for Biodistribution: Bladder* / Biodistribution: Stomach* / Biodistribution: large intestine* / Biodistribution: small intestine*: organ with content; for PIP/blood / PIP/muscle: ratio
Method: Radioiodination and Purification: 100 μg of either precursor 13, 14, 22 or 23 were dissolved in 100 μL EtOH; 22 μL Na^125I (1033-1118 μCi in 0.1 N NaOH), 100 μL 1N HCl and 100 μL 3% H2O2 were added. After 15 minutes at room temperature, the reaction was stopped by adding 150 μL sat. NaHSO3. The reaction mixture was slowly added to 1.5 mL sat. NaHCO3. Vial was rinsed with 1000 μL EtOH and mixture was diluted further to 10 mL mL water. The active sample was transferred onto an activated C4 mini column. The mixture was pushed through, washed twice with 3 mL water and the product was eluted with 1 mL ACN. Added 100 μL DMSO. The mixture was concentrated to ˜100 μL and purified by HPLC (Agilent Eclipse XCD C18 150×4.6 mm, 5 μm; 4 mL/min, gradient (ACN and water; 0-1 min (20/80), 1-16 min (20/80-100/0), 16-16.5 min (100/0-20/80), 16.5-20 min 20/80) (collected every minute). The sample was blown to dryness under argon, re-dissolved in 500 μL CH2Cl2 and 1 mL TFA was added at room temperature. After 1 hr the solution was blown to dryness and activity taken into 1 mL EtOH (10 μL saturated ascorbic acid/EtOH was added). Isolated activities for [^125I]17, 18, 26, and 27 were 197, 189, 600 and 197 μCi respectively. A representative picture of HPLC profiles (FIG. 3) for radiolabeled protected (intermediate), cold standard and radioactive trace of final compound is shown for [^125I]26.
For iv injection 150 μL of labeled solution was diluted with saline to 3.75 mL. Mice were injected with 2˜3 μCi of [^125I]18, 27, 26, and 18 in 0.15 mL saline. Injected radioactivity was 2 to 3 μCi.
Biodistribution study of [^125I]18, 27, 26, and 18 in tumor bearing nude mice were evaluated for their ability to localization of PSMA positive tumor (Tables 5, 6, 7 and 8). It was observed that [^125I]26 and [^125I] […] These new agents are valuable for radionuclide therapy, when labeled with beta or alpha-emitting isotopes; but these agents will also be useful as diagnostic agents when labeled with gamma-emitting isotopes.

`O=C(O)CC[C@H](NC(=O)N[C@@H](CCCCNC(=O)[C@H](Cc1ccccc1)NC(=O)COc1ccc(C[C@H](NC(=O)[C@H](CCC(=O)O)NC(=O)[C@H](CCC(=O)O)NC(=O)c2ccc([125I])cc2)C(=O)O)cc1)C(=O)O)C(=O)O` [[^125I]27] was tested, and the “Biodistribution: Blood” value (1 h) was 0.47 ± 0.07 % ID/g, the “Biodistribution: Bone” value (1 h) was 0.94 ± 0.21 % ID/g and the “Biodistribution: Heart” value (1 h) was 2.60 ± 0.10 % ID/g. For the same compound, the “Biodistribution: Kidney” value (1 h) was 127.77 ± 8.24 % ID/g, the “Biodistribution: Liver” value (1 h) was 1.72 ± 0.11 % ID/g and the “Biodistribution: Lung” value (1 h) was 3.53 ± 1.35 % ID/g. The “Biodistribution: Muscle” value (1 h) was 1.05 ± 0.07 % ID/g, the “Biodistribution: PC3 tumor” value (1 h) was 1.99 ± 0.17 % ID/g and the “Biodistribution: PIP tumor” value (1 h) was 17.19 ± 3.74 % ID/g. For the same compound, the “Biodistribution: Pancreas” value (1 h) was 1.32 ± 0.46 % ID/g, the “Biodistribution: Skin” value (1 h) was 2.68 ± 0.47 % ID/g and the “Biodistribution: Spleen” value (1 h) was 12.25 ± 3.36 % ID/g. The “Biodistribution: gland” value (1 h) was 3.59 ± 1.03 % ID/g, the “Biodistribution: thyroid” value (1 h) was 39.72 ± 12.95 % ID/g and the “Biodistribution: Bladder*” value (1 h) was 53.39 ± 19.82 % ID/g. For the same compound, the “Biodistribution: Stomach*” value (1 h) was 0.55 ± 0.21 % ID/g, the “Biodistribution: large intestine*” value (1 h) was 1.13 ± 0.52 % ID/g and the “Biodistribution: small intestine*” value (1 h) was 1.52 ± 0.45 % ID/g. For the same compound, the PIP/blood (1 h) was 36.90 ± 8.14, the PIP/muscle (1 h) was 16.57 ± 4.28 and the “Biodistribution: Blood” value (4 h) was 0.32 ± 0.12 % ID/g. The “Biodistribution: Bone” value (4 h) was 0.56 ± 0.05 % ID/g, the “Biodistribution: Heart” value (4 h) was 1.36 ± 0.33 % ID/g and the “Biodistribution: Kidney” value (4 h) was 138.08 ± 31.03 % ID/g. The “Biodistribution: Liver” value (4 h) was 1.28 ± 0.63 % ID/g, the “Biodistribution: Lung” value (4 h) was 1.86 ± 0.24 % ID/g and the “Biodistribution: Muscle” value (4 h) was 0.69 ± 0.21 % ID/g. For the same compound, the “Biodistribution: PC3 tumor” value (4 h) was 1.67 ± 0.44 % ID/g, the “Biodistribution: PIP tumor” value (4 h) was 17.36 ± 2.57 % ID/g and the “Biodistribution: Pancreas” value (4 h) was 1.07 ± 0.31 % ID/g. The “Biodistribution: Skin” value (4 h) was 2.03 ± 0.39 % ID/g, the “Biodistribution: Spleen” value (4 h) was 13.16 ± 4.01 % ID/g and the “Biodistribution: gland” value (4 h) was 3.57 ± 0.54 % ID/g. For the same compound, the “Biodistribution: thyroid” value (4 h) was 60.34 ± 22.28 % ID/g, the “Biodistribution: Bladder*” value (4 h) was 38.17 ± 21.99 % ID/g and the “Biodistribution: Stomach*” value (4 h) was 0.96 ± 0.55 % ID/g. The “Biodistribution: large intestine*” value (4 h) was 1.35 ± 0.48 % ID/g, the “Biodistribution: small intestine*” value (4 h) was 0.83 ± 0.34 % ID/g and the PIP/blood (4 h) was 58.93 ± 20.54. For the same compound, the PIP/muscle (4 h) was 27.34 ± 10.28, the Liver uptakes (mouse, in vivo) was “low” and the “Uptakes in PIP tumors, kidneys and spleen compared to [125I]17 and [125I]18” value (mouse, in vivo) was “higher uptakes”.

Source: US20220125959A1, “PROSTATE-SPECIFIC MEMBRANE ANTIGEN (PSMA) INHIBITORS AS DIAGNOSTIC AND RADIONUCLIDE THERAPEUTIC AGENTS” (FIVE ELEVEN PHARMA INC., priority 2019, published 2022)
